Laboratory results published in ChEMBL document CHEMBL1201862, “PubChem BioAssay data set” (2004).
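Results reflect a 48-hour exposure of cells in 96-well plates to compound at five concentrations. GI50: concentration for 50% inhibition of growth.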 Activity calls are given as the source filed them. No stated cut-off is given here; in the data, active = GI50 up to about 1.1 µM and inactive = higher.

Experiments:
Assay in all cases: inhibition of tumour cell growth, NCI panel, 48 h
SNB-75 = tested on: SNB-75
SK-MEL-2 = tested on: SK-MEL-2
HT-29 = tested on: HT-29
DMS-114 = tested on: DMS-114
HCC 2998 = tested on: HCC 2998
IGROV-1 = tested on: IGROV-1
SN12C = tested on: SN12C
SF-539 = tested on: SF-539
UACC-62 = tested on: UACC-62
M14 = tested on: M14
OVCAR-8 = tested on: OVCAR-8
NCI-H460 = tested on: NCI-H460
ACHN = tested on: ACHN
RPMI-8226 = tested on: RPMI-8226
SF-295 = tested on: SF-295
HOP-62 = tested on: HOP-62
SR = tested on: SR
MDA-N = tested on: MDA-N
MCF7 = tested on: MCF7
DU-145 = tested on: DU-145

| Structure (SMILES) | GI50 (SNB-75) | GI50 (SK-MEL-2) | GI50 (HT-29) | GI50 (DMS-114) | GI50 (HCC 2998) | GI50 (IGROV-1) | GI50 (SN12C) | GI50 (SF-539) | GI50 (UACC-62) | GI50 (M14) | GI50 (OVCAR-8) | GI50 (NCI-H460) | GI50 (ACHN) | GI50 (RPMI-8226) | GI50 (SF-295) | GI50 (HOP-62) | GI50 (SR) | GI50 (MDA-N) | GI50 (MCF7) | GI50 (DU-145) |
| --- | --- | --- | --- | --- | --- | --- | --- | --- | --- | --- | --- | --- | --- | --- | --- | --- | --- | --- | --- | --- |
| CC(Oc1ccc(OCC2CCCCC2)cc1)C(=O)NCc1ccco1 (configuration not stated) | 25.6 µM (inactive) | 21 µM (inactive) | 22.1 µM (inactive) | 18.4 µM (inactive) | 36.6 µM (inactive) | 43.7 µM (inactive) | 51.1 µM (inactive) | 37.7 µM (inactive) | 56 µM (inactive) | 18.7 µM (inactive) | 24.9 µM (inactive) | 48.1 µM (inactive) | 36.1 µM (inactive) | – | – | – | – | – | – | – |
| CCO/C([O-])=C(\C(=O)c1ccccc1)[n+]1c(C)sc2ccccc21 | > 100 µM (inactive) | 58.3 µM (inactive) | > 100 µM (inactive) | 32.3 µM (inactive) | > 100 µM (inactive) | > 100 µM (inactive) | – | 93.3 µM (inactive) | 52.8 µM (inactive) | > 100 µM (inactive) | > 100 µM (inactive) | 59.3 µM (inactive) | – | 59 µM (inactive) | 64.4 µM (inactive) | > 100 µM (inactive) | – | – | – | – |
| CC(=O)OC1C/C(C)=C/[C@H](O)CC(C)/C=C/[C@@]2(C)CCC(C(C)(C)O)C12 (some centres not stated) | > 100 µM (inactive) | > 100 µM (inactive) | > 100 µM (inactive) | > 100 µM (inactive) | > 100 µM (inactive) | > 100 µM (inactive) | > 100 µM (inactive) | > 100 µM (inactive) | > 100 µM (inactive) | > 100 µM (inactive) | > 100 µM (inactive) | > 100 µM (inactive) | > 100 µM (inactive) | > 100 µM (inactive) | > 100 µM (inactive) | > 100 µM (inactive) | > 100 µM (inactive) | – | – | – |
| CN1C(=O)N(C)C(N2CCCC2)c2c1nc1ccccn1c2=O (configuration not stated) | 45.9 µM (inactive) | 29.7 µM (inactive) | > 100 µM (inactive) | 56.2 µM (inactive) | 76.9 µM (inactive) | > 100 µM (inactive) | 54.3 µM (inactive) | 33.3 µM (inactive) | 67 µM (inactive) | 68.9 µM (inactive) | > 100 µM (inactive) | 76.4 µM (inactive) | > 100 µM (inactive) | 88.7 µM (inactive) | > 100 µM (inactive) | > 100 µM (inactive) | 34.8 µM (inactive) | – | – | – |
| Cc1ccc(S(=O)(=O)N2c3ccccc3[C@H]3CCC=C[C@H]32)cc1 | 5.05 µM (inactive) | 4.58 µM (inactive) | 3.45 µM (inactive) | 3.12 µM (inactive) | 8.11 µM (inactive) | 10.6 µM (inactive) | 14.5 µM (inactive) | 9.42 µM (inactive) | 4.82 µM (inactive) | 5.5 µM (inactive) | 20.5 µM (inactive) | 6.56 µM (inactive) | 19.3 µM (inactive) | 6.55 µM (inactive) | 3.91 µM (inactive) | 7.46 µM (inactive) | 3.03 µM (inactive) | 3.06 µM (inactive) | 3.81 µM (inactive) | 20.3 µM (inactive) |
| COc1cc2ccc3c4cc(OC)c(OCc5ccccc5)cc4cnc3c2cc1OC | > 100 µM (inactive) | > 100 µM (inactive) | > 100 µM (inactive) | > 100 µM (inactive) | > 100 µM (inactive) | > 100 µM (inactive) | > 100 µM (inactive) | – | > 100 µM (inactive) | > 100 µM (inactive) | > 100 µM (inactive) | > 100 µM (inactive) | > 100 µM (inactive) | 61.9 µM (inactive) | > 100 µM (inactive) | > 100 µM (inactive) | – | – | – | – |
| CCc1cccc(CC)c1NC(=O)C1=CNC(C)=C(C(=O)Nc2c(CC)cccc2CC)C1c1ccc(O)c(OC)c1 (configuration not stated) | 44.7 µM (inactive) | 26.2 µM (inactive) | 31.1 µM (inactive) | 24.5 µM (inactive) | 47.4 µM (inactive) | 36.8 µM (inactive) | 57.8 µM (inactive) | 17.6 µM (inactive) | – | 34.5 µM (inactive) | 33.7 µM (inactive) | 31.6 µM (inactive) | 32.5 µM (inactive) | 16.8 µM (inactive) | 29 µM (inactive) | 33.3 µM (inactive) | – | – | – | – |
| CCCCCCCCC/C=C/C=C/C(=O)NCC(=O)NC1C(O)C(O)C(Nc2ncnc3[nH]cnc23)OC1C(O)CO (configuration not stated) | 0.00125 µM (active) | 0.0056 µM (active) | 0.0011 µM (active) | 0.0551 µM (active) | 0.000509 µM (active) | 4.88e-05 µM (active) | 0.0136 µM (active) | 0.00448 µM (active) | 0.00507 µM (active) | 0.0046 µM (active) | 0.00413 µM (active) | 0.00189 µM (active) | 0.00953 µM (active) | 0.0018 µM (active) | 0.00796 µM (active) | 0.00412 µM (active) | 0.0211 µM (active) | 0.0306 µM (active) | 0.668 µM (active) | 0.00388 µM (active) |
| Cn1c(N)[n+](C(=O)OCc2ccccc2)c(=O)c2c1ncn2C(=O)OCc1ccccc1 | 24 µM (inactive) | > 100 µM (inactive) | > 100 µM (inactive) | 99.8 µM (inactive) | > 100 µM (inactive) | > 100 µM (inactive) | > 100 µM (inactive) | – | > 100 µM (inactive) | 50.9 µM (inactive) | > 100 µM (inactive) | > 100 µM (inactive) | 24.4 µM (inactive) | > 100 µM (inactive) | 49.5 µM (inactive) | 27 µM (inactive) | – | – | – | – |
| Nc1ccc(-c2cc(C(=O)Nc3nccs3)nc(S)n2)cc1 | > 100 µM (inactive) | > 100 µM (inactive) | > 100 µM (inactive) | > 100 µM (inactive) | – | > 100 µM (inactive) | > 100 µM (inactive) | > 100 µM (inactive) | > 100 µM (inactive) | > 100 µM (inactive) | > 100 µM (inactive) | – | > 100 µM (inactive) | > 100 µM (inactive) | – | – | – | – | – | – |
| CCNc1nnc(CSc2nc(-c3ccccc3)c(-c3ccccc3)[nH]2)s1 | 23 µM (inactive) | 20.8 µM (inactive) | 19.6 µM (inactive) | 20.7 µM (inactive) | – | – | 20.8 µM (inactive) | 18.7 µM (inactive) | – | 17.5 µM (inactive) | 14 µM (inactive) | 24.9 µM (inactive) | 23.3 µM (inactive) | 15.5 µM (inactive) | 17.7 µM (inactive) | 19.9 µM (inactive) | 31 µM (inactive) | – | – | – |
| COC(=O)C(=O)Cc1nc2ccccc2s1 | > 100 µM (inactive) | > 100 µM (inactive) | > 100 µM (inactive) | > 100 µM (inactive) | > 100 µM (inactive) | > 100 µM (inactive) | > 100 µM (inactive) | > 100 µM (inactive) | > 100 µM (inactive) | > 100 µM (inactive) | > 100 µM (inactive) | – | > 100 µM (inactive) | – | > 100 µM (inactive) | > 100 µM (inactive) | > 100 µM (inactive) | – | – | – |
| CCOC(=O)c1c(NNc2ccccc2)nc2ccccc2c1-c1ccccc1 | 36.8 µM (inactive) | 17.2 µM (inactive) | 32.3 µM (inactive) | 17.1 µM (inactive) | 55 µM (inactive) | 42.4 µM (inactive) | 30.6 µM (inactive) | 25.6 µM (inactive) | 16.6 µM (inactive) | 27.3 µM (inactive) | 20.4 µM (inactive) | 28.4 µM (inactive) | 39.5 µM (inactive) | 11.9 µM (inactive) | 42.6 µM (inactive) | 23.8 µM (inactive) | 21.4 µM (inactive) | – | – | – |
| CC(CCCOC(c1ccccc1)(c1ccccc1)c1ccccc1)OC(=O)Nc1cc([N+](=O)[O-])cc([N+](=O)[O-])c1 (configuration not stated) | 21.3 µM (inactive) | 29.4 µM (inactive) | 28.2 µM (inactive) | 30.6 µM (inactive) | 35.6 µM (inactive) | 30.9 µM (inactive) | 41.5 µM (inactive) | 38 µM (inactive) | 16.9 µM (inactive) | 34.9 µM (inactive) | 33.5 µM (inactive) | 24.5 µM (inactive) | 27.7 µM (inactive) | 32.5 µM (inactive) | 27 µM (inactive) | 27.4 µM (inactive) | 38.5 µM (inactive) | – | – | – |
| COCN1COCN/C1=N\C#N | > 100 µM (inactive) | > 100 µM (inactive) | > 100 µM (inactive) | > 100 µM (inactive) | > 100 µM (inactive) | > 100 µM (inactive) | > 100 µM (inactive) | > 100 µM (inactive) | > 100 µM (inactive) | > 100 µM (inactive) | > 100 µM (inactive) | > 100 µM (inactive) | > 100 µM (inactive) | > 100 µM (inactive) | > 100 µM (inactive) | > 100 µM (inactive) | 20.9 µM (inactive) | – | – | – |
| CN(C)CCn1c(=O)c2ccc(NCCCN(C)CCCNc3ccc4c(=O)n(CCN(C)C)c(=O)n5c6ccc([N+](=O)[O-])cc6c(=O)c3c45)c3c(=O)c4cc([N+](=O)[O-])ccc4n(c1=O)c23 | < 0.01 µM (active) | 0.0346 µM (active) | < 0.01 µM (active) | – | < 0.01 µM (active) | < 0.01 µM (active) | < 0.01 µM (active) | < 0.01 µM (active) | < 0.0246 µM (active) | 0.057 µM (active) | < 0.01 µM (active) | < 0.01 µM (active) | < 0.01 µM (active) | < 0.01 µM (active) | 0.0136 µM (active) | < 0.01 µM (active) | < 0.01 µM (active) | 0.0248 µM (active) | < 0.01 µM (active) | < 0.01 µM (active) |
| O=C1CC(c2c(-c3ccccc3)[nH]c3ccccc23)C(=O)N1 (configuration not stated) | 35.4 µM (inactive) | > 100 µM (inactive) | > 100 µM (inactive) | > 100 µM (inactive) | > 100 µM (inactive) | > 100 µM (inactive) | – | > 100 µM (inactive) | 89.3 µM (inactive) | > 100 µM (inactive) | > 100 µM (inactive) | > 100 µM (inactive) | > 100 µM (inactive) | > 100 µM (inactive) | > 100 µM (inactive) | > 100 µM (inactive) | – | – | – | – |
